# Test results taken from patent publication US9045445B2, “Glycine transporter-1 inhibitors, methods of making them, and uses thereof” (Albany Molecular Research, Inc., priority 2010, dated 2015).
# Counter-ions that a name gives are not always drawn.
# Tests used:
# [1] = biological target: T1, glycine transporter-1 (GlyT-1) (Homo sapiens, UniProt P48067); assay: [14C]glycine uptake assay in JAR cells endogenously expressing GlyT-1 (scintillation proximity); format: cell-based; settings: JAR cells, [14C]glycine 5 μM, 3 hour incubation; read-out: GlyT-1 IC50
# T1 construct: JAR cells (ATCC#HTB-144), which endogenously express GlyT-1; host or cells: JAR human choriocarcinoma cells
# T1 sequence (P48067 1-706): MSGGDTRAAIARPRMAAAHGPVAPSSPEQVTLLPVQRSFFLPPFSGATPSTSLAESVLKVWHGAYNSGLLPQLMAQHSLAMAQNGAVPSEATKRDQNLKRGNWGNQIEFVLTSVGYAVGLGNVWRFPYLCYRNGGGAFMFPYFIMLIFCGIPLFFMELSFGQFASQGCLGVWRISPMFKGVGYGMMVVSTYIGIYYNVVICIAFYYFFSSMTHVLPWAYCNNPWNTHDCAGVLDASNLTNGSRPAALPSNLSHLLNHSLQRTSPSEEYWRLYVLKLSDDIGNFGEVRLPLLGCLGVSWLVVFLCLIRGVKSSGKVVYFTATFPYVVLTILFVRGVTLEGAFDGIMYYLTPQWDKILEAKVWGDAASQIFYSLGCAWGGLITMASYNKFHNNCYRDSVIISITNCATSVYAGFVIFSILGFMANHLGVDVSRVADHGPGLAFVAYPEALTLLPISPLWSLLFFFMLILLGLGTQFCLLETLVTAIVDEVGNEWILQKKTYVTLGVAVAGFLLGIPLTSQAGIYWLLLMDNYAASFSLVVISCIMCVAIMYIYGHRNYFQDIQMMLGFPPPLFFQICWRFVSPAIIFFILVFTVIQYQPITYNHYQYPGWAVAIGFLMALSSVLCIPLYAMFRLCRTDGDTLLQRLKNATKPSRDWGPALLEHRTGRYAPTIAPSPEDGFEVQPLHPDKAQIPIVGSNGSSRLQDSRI
# Outline: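 IC50 comes from a four-parameter fit of nine-point, duplicate curves measuring inhibition of 5 μM [14C]glycine uptake, read by scintillation proximity after 3 h at 37 °C. Cells are human JAR, which express GlyT-1 endogenously, given 10 min compound pre-treatment in pH 7.4 buffer with 5 mM alanine and 0.75% DMSO.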
# [2] = biological target: T2, glycine transporter-2 (GlyT-2) (Homo sapiens, UniProt Q9Y345); assay: [14C]glycine uptake assay in HEK-GlyT-2 transfected cells; format: cell-based; settings: HEK-GlyT-2 cells
# T2 construct: expressed in transfected cells
# T2 sequence (Q9Y345 1-797): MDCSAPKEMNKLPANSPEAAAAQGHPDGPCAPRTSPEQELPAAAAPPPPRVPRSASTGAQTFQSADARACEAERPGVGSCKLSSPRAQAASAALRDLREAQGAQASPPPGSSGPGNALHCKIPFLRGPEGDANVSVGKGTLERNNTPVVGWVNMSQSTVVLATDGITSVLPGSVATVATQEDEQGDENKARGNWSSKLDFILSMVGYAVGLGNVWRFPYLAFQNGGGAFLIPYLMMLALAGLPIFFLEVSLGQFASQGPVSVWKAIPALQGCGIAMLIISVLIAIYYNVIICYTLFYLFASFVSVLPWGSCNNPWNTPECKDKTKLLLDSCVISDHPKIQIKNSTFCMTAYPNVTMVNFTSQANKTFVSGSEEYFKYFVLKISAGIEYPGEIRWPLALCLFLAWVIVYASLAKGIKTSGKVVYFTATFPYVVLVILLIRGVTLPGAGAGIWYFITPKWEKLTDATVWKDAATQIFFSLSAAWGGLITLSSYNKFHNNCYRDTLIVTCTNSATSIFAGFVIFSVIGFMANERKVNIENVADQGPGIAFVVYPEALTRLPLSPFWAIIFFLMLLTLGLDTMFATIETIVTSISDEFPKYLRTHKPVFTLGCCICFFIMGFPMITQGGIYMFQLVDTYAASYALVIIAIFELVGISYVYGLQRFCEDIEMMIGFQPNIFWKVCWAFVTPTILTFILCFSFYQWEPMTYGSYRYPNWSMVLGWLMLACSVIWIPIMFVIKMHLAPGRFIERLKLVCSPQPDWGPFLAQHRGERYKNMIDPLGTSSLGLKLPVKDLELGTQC
IC50 [1] [nM],IC50 [2] [µM],Compound
3,> 75,"Cn1cc(S(=O)(=O)N2CCN(C3(CNC(=O)c4c(F)cc(Cl)cc4F)CCC(F)(F)CC3)CC2)nn1 [compound 230, 4-Chloro-N-((4,4-difluoro-1-(4-(1-methyl-1H-1,2,3-triazol-4-ylsulfonyl)piperazin-1-yl)cyclohexyl)methyl)-2,6-difluorobenzamide Hydrochloride]"
1,> 75,"Cn1cc(S(=O)(=O)N2CCN(C3(CNC(=O)c4cc(F)c(Cl)cc4Cl)CCC(F)(F)CC3)CC2)nn1 [compound 231, 2,4-Dichloro-N-((4,4-difluoro-1-(4-(1-methyl-1H-1,2,3-triazol-4-ylsulfonyl)piperazin-1-yl)cyclohexyl)methyl)-5-fluorobenzamide Hydrochloride]"
6,> 75,"Cn1cc(S(=O)(=O)N2CCN(C3(CNC(=O)c4ccc(C(F)(F)F)cc4F)CCC(F)(F)CC3)CC2)nn1 [compound 232, N-((4,4-Difluoro-1-(4-(1-methyl-1H-1,2,3-triazol-4-ylsulfonyl)piperazin-1-yl)cyclohexyl)methyl)-2-fluoro-4-(trifluoromethyl)benzamide Hydrochloride]"
1,> 75,"Cn1cc(S(=O)(=O)N2CCN(C3(CNC(=O)c4ccc(F)cc4C(F)(F)F)CCC(F)(F)CC3)CC2)nn1 [compound 233, N-((4,4-Difluoro-1-(4-(1-methyl-1H-1,2,3-triazol-4-ylsulfonyl)piperazin-1-yl)cyclohexyl)methyl)-4-fluoro-2-(trifluoromethyl)benzamide Hydrochloride]"
4,> 75,"Cn1cc(S(=O)(=O)N2CCN(C3(CNC(=O)c4c(F)cc(F)cc4F)CCC(F)(F)CC3)CC2)nn1 [compound 234, N-((4,4-Difluoro-1-(4-(1-methyl-1H-1,2,3-triazol-4-ylsulfonyl)piperazin-1-yl)cyclohexyl)methyl)-2,4,6-trifluorobenzamide Hydrochloride]"
3,> 75,"Cn1cc(S(=O)(=O)N2CCN(C3(CNC(=O)c4cc(F)c(F)cc4Cl)CCC(F)(F)CC3)CC2)nn1 [compound 235, 2-Chloro-N-((4,4-difluoro-1-(4-(1-methyl-1H-1,2,3-triazol-4-ylsulfonyl)piperazin-1-yl)cyclohexyl)methyl)-4,5-difluorobenzamide Hydrochloride]"
41,> 75,"O=C(NCC1(N2CCN(S(=O)(=O)c3cn(C(F)F)nn3)CC2)CCC(F)(F)CC1)c1ccc(C(F)(F)F)cc1Cl [compound 236, 2-Chloro-N-((1-(4-(1-(difluoromethyl)-1H-1,2,3-triazol-4-ylsulfonyl)piperazin-1-yl)-4,4-difluorocyclohexyl)methyl)-4-(trifluoromethyl) benzamide Hydrochloride]"
18,> 75,"CCCS(=O)(=O)N1CCN(C2(CNC(=O)c3ccc(Cl)cc3C(F)(F)F)CCC(F)(F)CC2)CC1 [compound 245, 4-Chloro-N-((4,4-difluoro-1-(4-(propylsulfonyl)piperazin-1-yl)cyclohexyl)methyl)-2-(trifluoromethyl)benzamide Hydrochloride]"

# Second part, the compound before the results:
Compound,IC50 [1] [nM],IC50 [2] [µM]
"Cn1cnc(S(=O)(=O)N2CCN(C3(CNC(=O)c4ccc(F)cc4Cl)CCC(F)(F)CC3)CC2)c1 [compound 166, 2-Chloro-N-((4,4-difluoro-1-(4-(1-methyl-1H-imidazol-4-ylsulfonyl)piperazin-1-yl)cyclohexyl)methyl)-4-fluorobenzamide Hydrochloride]",5,> 75
"Cn1cnc(S(=O)(=O)N2CCN(C3(CNC(=O)c4c(F)cc(F)cc4F)CCC(F)(F)CC3)CC2)c1 [compound 167, N-((4,4-Difluoro-1-(4-(1-methyl-1H-imidazol-4-ylsulfonyl)piperazin-1-yl)cyclohexyl)methyl)-2,4,6-trifluorobenzamide Hydrochloride]",11,> 75
"Cn1cnc(S(=O)(=O)N2CCN(C3(CNC(=O)c4ccccc4C(F)(F)F)CCC(F)(F)CC3)CC2)c1 [compound 176, N-((4,4-Difluoro-1-(4-(1-methyl-1H-imidazol-4-ylsulfonyl)piperazin-1-yl)cyclohexyl)methyl)-2-(trifluoromethyl)benzamide Hydrochloride]",3,69.2
"Cn1cnc(S(=O)(=O)N2CCN(C3(CNC(=O)c4c(Cl)cccc4C(F)(F)F)CCC(F)(F)CC3)CC2)c1 [compound 185, 2-Chloro-N-((4,4-difluoro-1-(4-(1-methyl-1H-imidazol-4-ylsulfonyl)piperazin-1-yl)cyclohexyl)methyl)-6-(trifluoromethyl)benzamide Hydrochloride]",6,> 75
"O=C(NCC1(N2CCC(S(=O)(=O)CC3CC3)CC2)CCCCC1)c1ccc(Cl)cc1Cl [compound 200, 2,4-Dichloro-N-((1-(4-(cyclopropylmethyl-sulfonyl)piperidin-1-yl)cyclohexyl)methyl) benzamide Hydrochloride]",1080,> 75
"CCS(=O)(=O)N1CCN(C2(CNC(=O)c3ccc(C(F)(F)F)cc3Cl)CCC(F)(F)CC2)CC1 [compound 203, 2-Chloro-N-((1-(4-(ethylsulfonyl)piperazin-1-yl)-4,4-difluorocyclohexyl)methyl)-4-(trifluoromethyl) benzamide Hydrochloride]",94,> 75
"CCS(=O)(=O)N1CCN(C2(CNC(=O)c3c(Cl)cc(C(F)(F)F)cc3Cl)CCC(F)(F)CC2)CC1 [compound 207, 2,6-Dichloro-N-((1-(4-(ethylsulfonyl)piperazin-1-yl)-4,4-difluoro-cyclohexyl)methyl)-4-(trifluoromethyl) benzamide Hydrochloride]",64,> 75
"CC(NC(=O)c1ccc(F)cc1Cl)C1(N2CCN(S(=O)(=O)c3cn(C)nn3)CC2)CCC(F)(F)CC1 (centres unmarked) [compound 220, 2-Chloro-N-(1-(4,4-difluoro-1-(4-(1-methyl-1H-1,2,3-triazol-4-ylsulfonyl)piperazin-1-yl)cyclohexyl)ethyl)-4-fluorobenzamide Hydrochloride]",83,> 75
"CC(NC(=O)c1ccc(C(F)(F)F)cc1Cl)C1(N2CCN(S(=O)(=O)c3cn(C)nn3)CC2)CCC(F)(F)CC1 (centres unmarked) [compound 223, 2-Chloro-N-(1-(4,4-difluoro-1-(4-(1-methyl-1H-1,2,3-triazol-4-ylsulfonyl)piperazin-1-yl)cyclohexyl)ethyl)-4-(trifluoromethyl)benzamide Hydrochloride]",33,> 75
"CC(NC(=O)c1ccc(C(F)(F)F)cc1C(F)(F)F)C1(N2CCN(S(=O)(=O)c3cn(C)nn3)CC2)CCC(F)(F)CC1 (centres unmarked) [compound 225, N-(1-(4,4-Difluoro-1-(4-(1-methyl-1H-1,2,3-triazol-4-ylsulfonyl)piperazin-1-yl)cyclohexyl)ethyl)-2,4-bis(trifluoromethyl) benzamide Hydrochloride]",28,> 75
"Cn1cc(S(=O)(=O)N2CCN(C3(CNC(=O)c4ccc(Cl)cc4Cl)CCC(F)(F)CC3)CC2)nn1 [compound 228, 2,4-Dichloro-N-((4,4-difluoro-1-(4-(1-methyl-1H-l,2,3-triazol-4-ylsulfonyl)piperazin-1-yl)cyclohexyl)methyl) benzamide Hydrochloride]",1,> 75
